Earlier results in patent US11033601B2, “Selective inhibition of V1b for treating fatty liver” (The Regents of the University of Colorado, priority 2017, dated 2021).

Biological target: V2 receptors (Homo sapiens, UniProt P30518)
Sequence (P30518 whole entry): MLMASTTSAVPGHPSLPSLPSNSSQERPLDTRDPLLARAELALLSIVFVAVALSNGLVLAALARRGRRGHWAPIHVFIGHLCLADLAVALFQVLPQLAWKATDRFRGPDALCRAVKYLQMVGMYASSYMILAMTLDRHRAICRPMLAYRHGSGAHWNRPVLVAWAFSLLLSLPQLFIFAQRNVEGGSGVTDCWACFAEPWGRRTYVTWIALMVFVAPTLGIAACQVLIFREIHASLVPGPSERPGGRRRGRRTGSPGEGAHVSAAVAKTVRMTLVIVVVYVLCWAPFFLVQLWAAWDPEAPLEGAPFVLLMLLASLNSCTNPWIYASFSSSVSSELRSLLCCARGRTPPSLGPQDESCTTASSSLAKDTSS

effects on V2 receptors: little effects
SMILES: COc1ccc(S(=O)(=O)N2C(=O)[C@@](c3ccccc3OC)(N3C[C@H](O)C[C@H]3C(=O)N(C)C)c3cc(Cl)ccc32)c(OC)c1 [Nelivaptan]
